Series [1] in a line: Solid-state stability of crystalline forms on exposure to humidity. The class given is physicochemical.
A short description of series [2]: Desolvation / dehydration of crystalline forms on drying or heating. The series is classed as physicochemical. As to conditions: for temperature of heating/drying at which the form is converted to non-solvated non-hydrated form B: desolvation or dehydration to form B.

`C[C@H]1CC[C@@]2(OC1)O[C@H]1C[C@H]3[C@@H]4CC[C@@H]5C[C@@H](O)CC[C@]5(C)[C@H]4CC[C@]3(C)[C@H]1[C@@H]2C` [form A, sarsasapogenin]: the “form change on exposure to humidity” value in series [1] (humidity of 50% or greater) was “led to the formation of form C”. In addition, the “stability with respect to further drying” value in series [2] (after filtration and initial drying) is listed as “reasonable stability”. Further, the “temperature of heating/drying at which the form is converted to non-solvated non-hydrated form B” value in series [2] (listed as hemi acetone solvate) was 80-100 °C.
For `C[C@H]1CC[C@@]2(OC1)O[C@H]1C[C@H]3[C@@H]4CC[C@@H]5C[C@@H](O)CC[C@]5(C)[C@H]4CC[C@]3(C)[C@H]1[C@@H]2C` [form C, sarsasapogenin], the “temperature of heating/drying at which the form is converted to non-solvated non-hydrated form B” value in series [2] was 40-60 °C.
Consider `CC1CCC2(OC1)O[C@H]1CC3C4CC[C@@H]5C[C@@H](O)CC[C@]5(C)C4CC[C@]3(C)C1[C@@H]2C` (stereo partly drawn) [form D, sarsasapogenin], for which the “solvate stoichiometry on filtration and drying” value in series [2] is listed as “variable stoichiometry”.
In the case of `C[C@H]1CC[C@@]2(OC1)O[C@H]1C[C@H]3[C@@H]4CC[C@@H]5C[C@@H](O)CC[C@]5(C)[C@H]4CC[C@]3(C)[C@H]1[C@@H]2C` [form H, sarsasapogenin], the “form change on storage” value in series [1] (40° C. and 75% relative humidity for 18 days) was “furnish form I”.
